Molecular target: FAAH (Mus musculus (Mouse), UniProt O08914)
Experiment: Tissue levels of anandamide, PEA and 2-AG by LC/MS
Type: in vivo
Conditions: mice, 1 mg-kg^-1, i.p.
Experimental: Tissue analyses. We performed tissue extractions and liquid chromatography/mass spectrometry analyses of endocannabinoids as described^38.
Tissue extractions Mice were sacrificed with isoflurane and tissues were collected and immediately frozen in liquid nitrogen. Frozen tissues were weighed and homogenized in methanol (1 mL) containing [^2H4]-anandamide, [^2H4]-PEA, [^2H8]-2-AG, and N-cyclohexyl biphenyl-3-ylacetamide as internal standards. Analytes were extracted with chloroform (2 vol) and washed with water (1 vol). Organic phases were collected and dried under nitrogen. […] For other analyses the organic extract was fractionated by open-bed silica gel column chromatography, as described^43. Briefly, the extract was dissolved in chloroform and loaded onto small glass columns packed with Silica Gel G (60˜A 230-400 Mesh ASTM; Whatman, Clifton, N.J.). Anandamide, PEA and 2-AG were eluted with chloroform/methanol (9:1, vol/vol).
Mobile phase A consisted of methanol containing 0.25% acetic acid, 5 mM ammonium acetate; mobile phase B consisted of water containing 0.25% acetic acid, 5 mM ammonium acetate. […] Column temperature was kept at 40° C. […] Limit of quantification was 0.4 pmol.

FAAH, sequence (O08914 whole entry): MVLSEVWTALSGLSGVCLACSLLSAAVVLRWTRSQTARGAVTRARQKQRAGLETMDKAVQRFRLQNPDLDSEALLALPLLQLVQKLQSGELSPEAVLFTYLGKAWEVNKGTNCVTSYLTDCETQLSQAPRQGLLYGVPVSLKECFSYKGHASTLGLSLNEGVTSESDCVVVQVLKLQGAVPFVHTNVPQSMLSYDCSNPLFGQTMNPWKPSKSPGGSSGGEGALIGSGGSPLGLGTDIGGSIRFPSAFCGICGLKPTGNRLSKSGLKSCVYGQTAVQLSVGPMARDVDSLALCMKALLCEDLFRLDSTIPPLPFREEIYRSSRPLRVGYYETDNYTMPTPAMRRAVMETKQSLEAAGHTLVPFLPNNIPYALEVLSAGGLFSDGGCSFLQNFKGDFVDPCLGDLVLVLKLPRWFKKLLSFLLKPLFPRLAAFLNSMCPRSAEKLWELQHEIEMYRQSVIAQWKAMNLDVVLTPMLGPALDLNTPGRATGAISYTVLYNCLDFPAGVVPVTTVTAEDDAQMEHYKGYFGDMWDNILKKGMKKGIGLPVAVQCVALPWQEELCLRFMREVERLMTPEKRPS

## NC(=O)c1cccc(-c2cc(OC(=O)NC3CCCCC3)ccc2O)c1 [Compound 1b, cyclohexylcarbamic acid 3′-carbamoyl-6-hydroxybiphenyl-3-yl ester]
  anandamide levels: increased anandamide levels in the periphery, not in forebrain or hypothalamus
  tissue levels of 2-AG in vivo: did not alter

Source: US9187413B2, “Peripherally restricted FAAH inhibitors” (The Regents of the University of California, priority 2010, dated 2015)
